According to paper PMC9051980 (Saudi Pharmaceutical Journal : SPJ, 2022):

Columns and labels:
[1] = test system: cilia of the maxillary mucosa of toads; experiment: Mucosal irritation; set-up: species or system toad
Nasal perfusion method = type: in vivo, C57 mouse; conditions: at 60 min; 20 mL artificial nasal solution, 1 mg/mL, total dose 20 mg
In-vitro drug release = type: physicochemical; conditions: 34 °C, 200 rpm, artificial nasal fluid
[2] = Plasma pharmacokinetic evaluation; type: in vivo, C57BL/6N mice; conditions: both, C57BL/6N, mouse, po, 0.4 mg/mouse
[3] = In-vivo tissue distribution evaluation; conditions: both, C57BL/6N, mouse, po, 0.4 mg/mouse
PTSD mice [4] = experiment: Freezing response test in fear-conditioning box; type: in vivo, C57 mice
PTSD mice [5] = experiment: Open field test; type: in vivo, C57 mice
plasma CORT = experiment: Plasma CORT level; type: in vivo, C57 mice; conditions: Day 19, compared with Healthy group
[6] = test system: amygdala dopamine transporter (DAT); experiment: Immunohistochemistry of amygdala DAT; type: in vivo, C57 mice; conditions: Day 19, compared with Healthy group
[7] = Day 17, five days after drug withdrawal, compared with Healthy group
[8] = Day 17, five days after drug withdrawal, compared with Model group
[9] = Day 12, compared with Model group

Structure (SMILES): C[C@H](CCC(=O)O)[C@H]1CC[C@H]2[C@@H]3CC[C@@H]4C[C@H](O)CC[C@]4(C)[C@H]3C[C@H](O)[C@]12C [Sodium Deoxycholate]
- PVD (persistent vibration duration of cilia) ([1]; 100 μL on toad upper-jaw mucosa, armodafinil 20 mg/mL, sodium deoxycholate 1%): 136.67 ± 26.95 min
- PPV (percentage of persistent vibration) ([1]; PVD compared with that of the saline group): 20.69%
- Ciliary structure / extent of damage of cilia under microscope ([1]; maxillary mucosa of toads): obviously prostrate or even exfoliated

Structure (SMILES): NC(=O)C[S@@+]([O-])C(c1ccccc1)c1ccccc1 [Armodafinil]
- Mucosal absorptive amount of armodafinil (Nasal perfusion method): 2.50 mg
- Time at which the release was complete (In-vitro drug release): 2 h
- Released armodafinil percentage when release was complete (In-vitro drug release; 20 mg/mL armodafinil): 18.12 ± 1.03%
- AUC(0-t) [2]: 9900 ± 5500 ng·h/mL
- Cmax [2]: 3600 ± 2250 ng/mL
- Tmax [2]: 15 min
- AUC(0-t) ([3]; brain): 1090 ng·h/mL
- Cmax ([3]; brain): 259 ± 96 ng/mL
- Tmax ([3]; brain): 30 min
- AUC(0-t) ([3]; liver): 2380 ng·h/mL
- Cmax ([3]; liver): 1150 ± 199 ng/mL
- Tmax ([3]; liver): 30 min

Structure (SMILES): CN[C@H]1CC[C@@H](c2ccc(Cl)c(Cl)c2)c2ccccc21 [Sertraline]
- Freezing time (PTSD mice [4]; Day 11, compared with Healthy group): longer freezing time
- Total active distances (PTSD mice [4]; Day 11, fear-conditioning box, compared with Healthy group): shorter total active distances
- Total active distances (PTSD mice [4]; Day 11, fear-conditioning box, compared with Model group): longer total active distances
- Freezing time (PTSD mice [4]; [7]): longer freezing time
- Total active distances (PTSD mice [4]; [7]): shorter total active distances
- Freezing time (PTSD mice [4]; [8]): shorter freezing time
- Total active distances (PTSD mice [4]; [8]): longer total active distances
- Open field test indicators (PTSD mice [5]; Day 12, compared with Healthy group): fewer crossing times
- Active distances in the center of thigmotaxis area (PTSD mice [5]; [9]): more active distances in the center of thigmotaxis area
- Crossings in the center of thigmotaxis area (PTSD mice [5]; [9]): more crossings in the center of thigmotaxis area
- Total active distances (PTSD mice [5]; Day 12, open field, compared with Model group): more total active distances
- Crossings and active distances in the center of thigmotaxis area (PTSD mice [5]; Day 18, after drug withdrawal, compared with Healthy group): fewer crossings and active distances in the center of thigmotaxis area
- Crossing of the center of thigmotaxis area (PTSD mice [5]; Day 18, after drug withdrawal, compared with Model group): more frequently
- Total active distances (PTSD mice [5]; Day 18, open field, after drug withdrawal, compared with Healthy group): fewer total active distances
- Total active distances (PTSD mice [5]; Day 18, open field, after drug withdrawal, compared with Model group): increased
- Plasma CORT level (plasma CORT): decreased
- DAT expression in amygdala (IOD) [6]: significantly increased
